Assay results published in PubChem BioAssay (NCI).
Values joined by “and” are separate entries in the source; they are usually repeats but may differ in a detail not shown here. Identical values can stand only once.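 1) Cells in 96-well plates. 2) Compound, 48 h, 5 concentrations. 3) Linear interpolation between surrounding doses. 4) Unreached endpoint = highest concentration. The concentration for 50% growth inhibition is given as GI50. Definition used: TGI = concentration required for complete inhibition of growth.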

Experiments:
Experiment in all cases: NCI tumour cell line growth inhibition, 48 h
DU-145 prostate = test system: DU-145 prostate
SNB-19 CNS = test system: SNB-19 CNS
HCT-15 colon = test system: HCT-15 colon
ACHN renal = test system: ACHN renal
RPMI-8226 leukemia = test system: RPMI-8226 leukemia
SK-MEL-5 melanoma = test system: SK-MEL-5 melanoma
SF-295 CNS = test system: SF-295 CNS
MOLT-4 leukemia = test system: MOLT-4 leukemia
SK-OV-3 ovarian = test system: SK-OV-3 ovarian
CCRF-CEM leukemia = test system: CCRF-CEM leukemia

| Structure (SMILES) | TGI (DU-145 prostate) [µM] | TGI (SNB-19 CNS) [µM] | TGI (HCT-15 colon) [µM] | TGI (ACHN renal) [µM] | TGI (RPMI-8226 leukemia) [µM] | TGI (SK-MEL-5 melanoma) [µM] | TGI (SF-295 CNS) [µM] | TGI (MOLT-4 leukemia) [µM] | TGI (SK-OV-3 ovarian) [µM] | TGI (CCRF-CEM leukemia) | GI50 (HCT-15 colon) [µM] | GI50 (RPMI-8226 leukemia) [µM] | GI50 (MOLT-4 leukemia) [µM] | GI50 (CCRF-CEM leukemia) [µM] |
| --- | --- | --- | --- | --- | --- | --- | --- | --- | --- | --- | --- | --- | --- | --- |
| Cc1ccc(-c2n[nH]c(=O)n2N2C(=O)c3ccccc3C2=O)cc1 | > 100 | > 100 | > 100 | > 100 | > 100 | > 100 | > 100 | > 100 | – | – | – | – | – | – |
| COc1ccc(C2CC(c3c(O)ccc4ccccc34)=NN2C(C)=O)cc1OC (stereo unspecified) | 92 | – | > 100 | > 100 | 54.4 | 71.8 | > 100 | 53.6 | > 100 | 36.6 µM | – | – | – | – |
| COc1cc2c(c(OC)c1OC)C(=O)[C@@H]1[C@H]2N1C(N)=O | > 100 | > 100 | > 100 | > 100 | > 100 | > 100 | > 100 | > 100 | – | > 100 µM | – | – | – | – |
| C[C@@H]1CC[C@]2(C(=O)O)CC[C@]3(C)C(=CC[C@@H]4[C@@]5(C)CC[C@H](O)C(C)(C)[C@@H]5CC[C@]43C)[C@@H]2[C@]1(C)O | 21.1 | 29.7 | 24.2 | 30.4 | 33.9 | – | 10.6 | 18.3 | 31.8 | 23.2 µM | – | – | – | – |
| O=C1CCCSC(=O)N1Cc1ccccc1 | > 100 | > 100 | > 100 | > 100 | – | > 100 | > 100 | > 100 | > 100 | > 100 µM | – | – | – | – |
| COC(=O)c1c(C)cccc1C1CN=NC12Cc1ccc(C)cc1C2=O (stereo unspecified) | > 100 | > 100 | > 100 | > 100 | > 100 | 44.1 | > 100 | 84.7 | – | > 100 µM | – | – | – | – |
| CC(C)(C)OC(=O)N[C@H]1CCN(C2CCCCC2)C1=O | > 100 | > 100 | > 100 | > 100 | > 100 | > 100 | – | > 100 | > 100 | > 100 µM | – | – | – | – |
| COc1cccc(C(=O)O[C@H]2[C@@H]3[C@]4(OC(C)=O)CO[C@@H]4C[C@H](O)[C@@]3(C)C(=O)[C@H](OC(C)=O)C3=C(C)[C@@H](OC(=O)[C@H](O)[C@@H](NC(=O)OC(C)(C)C)c4ccco4)C[C@]2(O)C3(C)C)c1 | > 37.5 | > 30 | > 16.4 | > 37.5 | – | > 15.7 | 0.151 | 9.99 | 0.0279 | 0.368 µM | – | – | – | – |
| N#Cc1c(-c2ccccc2)/c(=C\Nc2cccc(C(F)(F)F)c2)c(=O)n2c1nc1ccccc12 | – | > 100 | > 100 | > 100 | 39.9 | > 100 | > 100 | – | 91.6 | > 100 µM | – | – | – | – |
| COc1ccc(COCCOCc2nc(C#N)c(N)o2)cc1 | > 100 | – | > 100 | > 100 | > 100 | > 100 | > 100 | > 100 | > 100 | > 100 µM | – | – | – | – |
| Cc1cn2c(/C=N/N=C(N)N)c(-c3cccc([N+](=O)[O-])c3)nc2s1 | 3.27 | – | 19.6 | 3.03 | > 100 | 3.13 | 3.3 | 4.04 | – | > 100 µM | – | – | – | – |
| N#CC1(C#N)N[C@@H](c2ccsc2)[C@H]2C(=O)N(c3ccccc3)C(=O)[C@H]21 | > 100 | – | – | > 100 | 53.5 | > 100 | > 100 | > 100 | > 100 | – | – | – | – | – |
| O=C(CCN1CCCCC1)C(=Cc1ccccc1)C(=O)CCN1CCCCC1 | – | > 100 | – | – | 57.9 | > 100 | > 100 | 42.3 | > 100 | 7.36 µM and 51.2 µM | 3.07 | 4.49 | 4.32 | 2.44 |
| O=c1ccc(-c2ccccc2)n[nH]1 | > 100 | > 100 | > 100 | > 100 | – | > 100 | > 100 | > 100 | – | > 100 µM | – | – | – | – |
| COc1ccc(-c2c(C#N)c(-c3ccc(C)cc3)n(NS(=O)(=O)c3ccc(C)cc3)c(=O)c2C#N)cc1 | – | > 100 | > 100 | > 100 | 46.3 | 58.3 | > 100 | 57.4 | > 100 | 81.6 µM | – | – | – | – |
| Cc1cc(Cc2cc(C)c(N)cc2N)c(N)cc1N | > 100 | > 100 | > 100 | > 100 | > 100 | > 100 | > 100 | > 100 | > 100 | – | – | – | – | – |
| O=C(N/N=C(/COc1ccc(Cl)cc1)N=Cc1ccncc1)c1ccncc1 | > 100 | > 100 | > 100 | > 100 | > 100 | – | > 100 | > 100 | > 100 | > 100 µM | – | – | – | – |
| COc1cc(C2c3cc4c(cc3OC(N3CCOCC3)C2C)OCO4)ccc1O (stereo unspecified) | > 100 | > 100 | > 100 | > 100 | 19.9 | > 80.4 | 38.2 | 60.7 | – | > 91.8 µM | – | – | – | – |
| NC(=O)NCCCC(NC(=O)OCCCCn1ccc(=O)[nH]c1=O)C(=O)O (stereo unspecified) | > 100 | > 100 | > 100 | > 100 | > 100 | – | > 100 | > 100 | > 100 | > 100 µM | – | – | – | – |
| O=C1CCCc2cc3c(cc21)CC1(Cc2ccccc2C1)C3 | – | – | 24.4 | 32.9 | 25.7 | 16.2 | 21.5 | 19.3 | 97.3 | – | – | – | – | – |
| Cc1ccc(Cl)c2[nH]c(-c3ccccc3)cc(=O)c12 | > 100 | – | > 100 | 98.4 | > 100 | > 100 | > 100 | > 100 | > 100 | > 100 µM | – | – | – | – |
| Clc1ccccc1C(SCc1ccccc1)SCc1ccccc1 | > 100 | > 100 | > 100 | > 100 | > 100 | > 100 | > 100 | > 100 | – | > 100 µM | – | – | – | – |
| COc1ccc2c(c1)/C(=C/CCN(C)C)c1ccccc1S2 | > 100 | > 100 | > 100 | > 100 | – | 31.7 | > 100 | > 100 | > 100 | > 100 µM | – | – | – | – |
